Assay results from patent publication US7579371B2, “Methods of using [3.2.0] heterocyclic compounds and analogs thereof” (Nereus Pharmaceuticals, Inc., priority 2004, dated 2009).

What was measured:
NF-κB = assay: NF-κB-mediated luciferase reporter gene assay, HEK293 NF-κB/Luc cells, TNF-α stimulation; type: cell-based; settings: Homo sapiens, HEK293, read-out: EC50, NF-κB-mediated luciferase activity, 1 hr pretreatment, 6 hours TNF-α
Description: The HEK293 NF-κB/luciferase reporter cell line is a derivative of the human embryonic kidney cell line (ATCC; CRL-1573) and carries a luciferase reporter gene under the regulation of 5× NF-κB binding sites. […] When performing the luciferase assay, the DMEM basal medium was replaced with phenol-red free DMEM basal medium and the G418 was omitted.
For NF-κB-mediated luciferase assays, HEK293 NF-κB/luciferase cells were seeded at 1.5×10^4 cells/well in 90 μl phenol-red free DMEM complete medium into Corning 3917 white opaque-bottom tissue culture plates. For Formulae II-2, II-4, II-5A and II-18, a 400 μM starting dilution was made in 100% DMSO and this dilution was used to generate an 8-point half log dilution series. […] For formula II-20, a 2.5 mM or 8 mM starting dilution was made in 100% DMSO and the final test concentrations ranged from 6.3 μM to 2.0 nM or 20 μM to 6.3 nM respectively. The plates were returned to the incubator for 1 hour. After 1 hr pretreatment, 10 μl of a 50 ng/ml TNF-α solution, prepared in the phenol-red free DMEM medium was added, and the plates were incubated for an additional 6 hours.
At the end of the TNF-α stimulation, 100 μl of Steady Lite HTS luciferase reagent (Packard Bioscience) was added to each well and the plates were left undisturbed for 10 min at room temperature before measuring the luciferase activity. The relative luciferase units (RLU) were measured by using a Fusion microplate fluorometer (Packard Bioscience).
NF-κB inducible luciferase activity was measured at 6 hours.

MES-SA = assay: Cell growth inhibition assay (resazurin, 48 h); type: cell-based, human

C[C@@]12OC(=O)[C@]1([C@@H](O)[C@@H]1C=CCCC1)NC(=O)[C@@H]2CCCl [Formula II-16, Salinosporamide A]
EC50 (NF-κB): ~7 nM | % cytotoxicity (MES-SA): 94 ± 1% | EC50 (MES-SA; Homo sapiens, 48 h): 20 ± 5 nM
